Results published in publication PMC6271254, “Antibacterial and EGFR-Tyrosine Kinase Inhibitory Activities of Polyhydroxylated Xanthones from Garcinia succifolia” (Molecules, 2014).
pIC50: −log10 of the molar value.

Molecular target: epidermal growth factor receptor (EGFR) tyrosine kinase (Homo sapiens, UniProt P00533)
Assay: fluorescence tyrosine kinase assay (Antibody Beacon detection), dose-response
Type: biochemical

epidermal growth factor receptor (EGFR) tyrosine kinase, sequence (P00533 25-1210): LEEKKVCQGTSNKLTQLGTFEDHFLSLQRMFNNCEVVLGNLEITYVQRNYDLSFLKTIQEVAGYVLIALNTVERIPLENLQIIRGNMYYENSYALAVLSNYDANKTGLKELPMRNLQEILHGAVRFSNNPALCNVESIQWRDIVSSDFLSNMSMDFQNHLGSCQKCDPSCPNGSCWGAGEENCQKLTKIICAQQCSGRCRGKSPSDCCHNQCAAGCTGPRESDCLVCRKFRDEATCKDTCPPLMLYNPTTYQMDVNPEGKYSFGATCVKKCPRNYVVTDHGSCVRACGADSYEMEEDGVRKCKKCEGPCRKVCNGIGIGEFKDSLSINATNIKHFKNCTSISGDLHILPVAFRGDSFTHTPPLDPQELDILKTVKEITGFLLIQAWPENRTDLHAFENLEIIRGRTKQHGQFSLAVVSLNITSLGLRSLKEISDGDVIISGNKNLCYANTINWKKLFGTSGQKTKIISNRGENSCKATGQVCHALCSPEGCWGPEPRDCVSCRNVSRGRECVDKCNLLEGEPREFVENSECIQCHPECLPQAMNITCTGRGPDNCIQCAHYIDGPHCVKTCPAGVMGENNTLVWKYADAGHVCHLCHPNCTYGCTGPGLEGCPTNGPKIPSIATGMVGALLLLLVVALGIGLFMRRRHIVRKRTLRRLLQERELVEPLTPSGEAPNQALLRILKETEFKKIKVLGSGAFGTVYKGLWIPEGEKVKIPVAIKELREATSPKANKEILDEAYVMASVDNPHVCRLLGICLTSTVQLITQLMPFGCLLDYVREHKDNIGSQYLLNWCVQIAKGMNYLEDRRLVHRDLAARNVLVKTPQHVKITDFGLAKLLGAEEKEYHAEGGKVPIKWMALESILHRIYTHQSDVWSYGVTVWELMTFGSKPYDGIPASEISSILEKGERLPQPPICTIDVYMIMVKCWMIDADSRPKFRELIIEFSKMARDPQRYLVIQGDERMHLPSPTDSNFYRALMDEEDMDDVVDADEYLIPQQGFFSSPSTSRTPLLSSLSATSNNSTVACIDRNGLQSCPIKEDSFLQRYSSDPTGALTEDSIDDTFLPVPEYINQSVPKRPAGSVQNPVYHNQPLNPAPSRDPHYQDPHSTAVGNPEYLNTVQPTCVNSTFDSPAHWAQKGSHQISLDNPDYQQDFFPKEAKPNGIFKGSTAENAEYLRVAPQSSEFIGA

Row | pIC50 | Structure (SMILES)
1 | 7.04 | O=c1c2cccc(O)c2oc2cccc(O)c12 [compound 1, 1,5-dihydroxyxanthone]
2 | 6.65 | O=c1c2cc(O)ccc2oc2cccc(O)c12 [compound 2, 1,7-dihydroxyxanthone]
